# Source: ChEMBL document CHEMBL1150451, “Synthetic studies on the furan ring of wortmannin” (Bioorg Med Chem Lett, 1995)
# Test: Inhibition of Phosphatidylinositol 3-kinase
row,Compound,IC50
1,C/N=C/C1=C(O)O[C@H](COC)[C@@]2(C)C1=C(O)C(=O)C1=C2[C@H](OC(C)=O)C[C@]2(C)C(=O)CC[C@@H]12,> 500 nM
2,COC[C@H]1OC(O)=C(C=N)C2=C(O)C(=O)C3=C([C@H](OC(C)=O)C[C@]4(C)C(=O)CC[C@@H]34)[C@]21C,> 500 nM
3,COC[C@H]1OC(=O)C(=C(C)C)C2=C(O)C(=O)C3=C([C@H](OC(C)=O)C[C@]4(C)C(=O)CC[C@@H]34)[C@]21C,> 500 nM
4,CC/N=C/C1=C(O)O[C@H](COC)[C@@]2(C)C1=C(O)C(=O)C1=C2[C@H](OC(C)=O)C[C@]2(C)C(=O)CC[C@@H]12,> 500 nM
5,CCC/N=C\C1=C(O)O[C@H](COC)[C@@]2(C)C1=C(O)C(=O)C1=C2[C@H](OC(C)=O)C[C@]2(C)C(=O)CC[C@@H]12,> 500 nM
6,COC[C@H]1OC(=O)C2=CCOC3=C2[C@@]1(C)C1=C(C3=O)[C@@H]2CCC(=O)[C@@]2(C)C[C@H]1OC(C)=O,271 nM
7,CCN(/C=C1/C(=O)O[C@H](COC)[C@@]2(C)C1=C(O)C(=O)C1=C2[C@H](OC(C)=O)C[C@]2(C)C(=O)CC[C@@H]12)CC,80 nM
8,COC[C@H]1OC(=O)C23CC2COC2=C3[C@@]1(C)C1=C(C2=O)[C@@H]2CCC(=O)[C@@]2(C)C[C@H]1OC(C)=O (some centres undefined),> 500 nM
9,COC[C@H]1OC(=O)c2coc3c2[C@@]1(C)C1=C(C3=O)[C@@H]2CCC(=O)[C@@]2(C)C[C@H]1OC(C)=O [WORTMANNIN],4.2 nM
